Structures are written as SMILES.

These results are taken from ChEMBL document CHEMBL5465560, “Selectivity Literature for EUbOPEN Chemogenomic Library” (2024).

For experiment [1], the system named is Hepatocyte growth factor receptor (Homo sapiens), P08581 [M1250T]. Briefly: (§1) Selectivity interaction (Ambit KINOMEscan and KiNATiv profiling in Jurkat cells) EUB0000090b MET. Conditions: at 1 µM. It is filed as cell-based.
For experiment [2], the system named is Hepatocyte growth factor receptor (Homo sapiens), P08581 [Y1235D]. The description is as §1. Conditions: at 1 µM. The format is cell-based.
The target in experiment [3] is Hepatocyte growth factor receptor (Homo sapiens, UniProt P08581). Described as §1. The note with it: at 1 µM. It is filed as cell-based.
In experiment [4] the target is Ribosomal protein S6 kinase alpha-2 (Homo sapiens) (UniProt Q15349). Briefly: Selectivity interaction (Ambit KINOMEscan and KiNATiv profiling in Jurkat cells) EUB0000090b RPS6KA2. The note with it: at 1 µM. It is filed as cell-based.
The test system of experiment [5] is eIF-2-alpha kinase GCN2 (Homo sapiens), Q9P2K8 [S808G]. Briefly: Selectivity interaction (KinomeScan (DiscoverX)) EUB0000666a EIF2AK4. The note with it: at 10 µM.
Experiment [6] concerns the target Maternal embryonic leucine zipper kinase (Homo sapiens) (UniProt Q14680). Nature of the experiment: Selectivity interaction (KinomeScan (DiscoverX)) EUB0000229b MELK. Conditions: at 10 µM.
Experiment [7] addresses Mitogen-activated protein kinase kinase kinase 11 (Homo sapiens) (UniProt Q16584). Nature of the experiment: Selectivity interaction (KinomeScan (DiscoverX)) EUB0001619a MAP3K11. The note with it: at 1 µM.
The target in experiment [8] is Mitogen-activated protein kinase kinase kinase 20 (Homo sapiens) (UniProt Q9NYL2). Briefly: Selectivity interaction (ActivX KiNativ screen (kinase selectivity in THP-1 cell lysates)) EUB0000639a MAP3K20. The note with it: lysate. The format is subcellular.
Experiment [9] has as its target Ribosomal protein S6 kinase alpha-6 (Homo sapiens, UniProt Q9UK32). The note with it: at 10 µM.
The target of experiment [10] is T1, Bromodomain-containing protein 4 (Homo sapiens, UniProt O60885).
Experiment [11] has as its target Dual specificity tyrosine-phosphorylation-regulated kinase 1A (Homo sapiens, UniProt Q13627). Briefly: Selectivity interaction (KinomeScan (DiscoverX)) EUB0001049a DYRK1A. The note with it: at 1 µM.
The target of experiment [12] is T2, Phosphatidylinositol 4,5-bisphosphate 3-kinase catalytic subunit delta isoform (Homo sapiens) (UniProt O00329).
T2 sequence (whole entry): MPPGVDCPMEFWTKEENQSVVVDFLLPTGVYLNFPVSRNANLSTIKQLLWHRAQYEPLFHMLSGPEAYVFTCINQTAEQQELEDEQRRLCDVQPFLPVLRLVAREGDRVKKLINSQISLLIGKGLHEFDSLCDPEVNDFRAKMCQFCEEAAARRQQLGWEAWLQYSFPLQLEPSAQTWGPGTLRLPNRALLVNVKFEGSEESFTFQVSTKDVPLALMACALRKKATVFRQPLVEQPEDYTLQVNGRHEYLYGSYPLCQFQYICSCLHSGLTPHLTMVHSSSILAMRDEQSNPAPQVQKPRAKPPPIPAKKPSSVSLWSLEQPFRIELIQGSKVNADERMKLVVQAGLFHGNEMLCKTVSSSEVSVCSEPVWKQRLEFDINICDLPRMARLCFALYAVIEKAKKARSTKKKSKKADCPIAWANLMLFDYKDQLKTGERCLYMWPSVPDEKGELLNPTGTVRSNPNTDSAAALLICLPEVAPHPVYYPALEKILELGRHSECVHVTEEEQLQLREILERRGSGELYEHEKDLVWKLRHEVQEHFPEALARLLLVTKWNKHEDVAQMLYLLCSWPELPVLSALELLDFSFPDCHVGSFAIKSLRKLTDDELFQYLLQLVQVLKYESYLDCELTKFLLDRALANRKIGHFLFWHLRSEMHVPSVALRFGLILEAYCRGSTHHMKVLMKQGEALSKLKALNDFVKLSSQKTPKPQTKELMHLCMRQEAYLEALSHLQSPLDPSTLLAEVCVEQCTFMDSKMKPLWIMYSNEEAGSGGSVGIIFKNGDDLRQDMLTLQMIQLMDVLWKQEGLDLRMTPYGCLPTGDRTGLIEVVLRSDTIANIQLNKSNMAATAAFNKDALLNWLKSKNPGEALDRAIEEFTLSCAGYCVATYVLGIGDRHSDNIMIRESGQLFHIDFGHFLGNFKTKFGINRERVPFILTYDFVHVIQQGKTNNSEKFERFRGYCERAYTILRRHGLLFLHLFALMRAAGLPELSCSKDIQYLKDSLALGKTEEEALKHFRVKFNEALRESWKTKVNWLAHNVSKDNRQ
Briefly: Selectivity interaction (KinomeScan (DiscoverX)) EUB0001049a PIK3CD. Conditions: at 1 µM.

Experiment [13] deals with CDK1/Cyclin A (Homo sapiens) (UniProt P06493+P20248). Nature of the experiment: (§2) Selectivity interaction (ProQinase) EUB0000171b CDK1. It is filed as protein-complex assay.
The target in experiment [14] is CDK1/Cyclin E (Homo sapiens) (UniProt P06493+P24864). The description is as §2. The format is protein-complex assay.
Experiment [15] deals with Cyclin-dependent kinase 1/cyclin B1 (Homo sapiens) (UniProt P06493+P14635). The experiment is described as §2. The format is protein-complex assay.
In experiment [16] the target is Tyrosine-protein kinase Blk (Homo sapiens) (UniProt P51451). Briefly: Selectivity interaction (KinomeScan (DiscoverX)) EUB0000092b BLK. The note with it: at 10 µM.
Experiment [17] concerns the target Mitogen-activated protein kinase 7 (Homo sapiens) (UniProt Q13164). Briefly: Selectivity interaction (KinomeScan (DiscoverX)) EUB0000092b MAPK7. Conditions: at 10 µM.
For experiment [18], the target named is T1, Bromodomain-containing protein 4. Nature of the experiment: Selectivity interaction (Kinase panel (DSF assay)) EUB0001559a BRD4.
Experiment [19] deals with Serine/threonine-protein kinase 38 (Homo sapiens) (UniProt Q15208). Briefly: Selectivity interaction (KinomeScan (DiscoverX)) EUB0000618a STK38. Conditions: at 10 µM.
Sequence of Serine/threonine-protein kinase 38 (Homo sapiens) (Q15208 2-465 limits assumed): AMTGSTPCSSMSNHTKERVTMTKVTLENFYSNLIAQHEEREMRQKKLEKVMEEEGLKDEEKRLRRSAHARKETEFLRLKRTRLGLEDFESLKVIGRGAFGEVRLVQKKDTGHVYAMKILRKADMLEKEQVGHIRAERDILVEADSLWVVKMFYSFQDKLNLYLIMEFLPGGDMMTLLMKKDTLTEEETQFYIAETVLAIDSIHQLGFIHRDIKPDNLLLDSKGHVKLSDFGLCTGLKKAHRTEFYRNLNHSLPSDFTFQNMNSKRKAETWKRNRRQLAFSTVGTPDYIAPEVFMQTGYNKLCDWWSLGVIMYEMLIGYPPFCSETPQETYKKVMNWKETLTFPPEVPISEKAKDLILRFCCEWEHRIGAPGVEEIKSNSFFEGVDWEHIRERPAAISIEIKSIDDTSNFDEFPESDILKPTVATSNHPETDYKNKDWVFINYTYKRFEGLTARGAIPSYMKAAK

Sequence of Mitogen-activated protein kinase kinase kinase 20 (Homo sapiens) (Q9NYL2 2-800 limits assumed): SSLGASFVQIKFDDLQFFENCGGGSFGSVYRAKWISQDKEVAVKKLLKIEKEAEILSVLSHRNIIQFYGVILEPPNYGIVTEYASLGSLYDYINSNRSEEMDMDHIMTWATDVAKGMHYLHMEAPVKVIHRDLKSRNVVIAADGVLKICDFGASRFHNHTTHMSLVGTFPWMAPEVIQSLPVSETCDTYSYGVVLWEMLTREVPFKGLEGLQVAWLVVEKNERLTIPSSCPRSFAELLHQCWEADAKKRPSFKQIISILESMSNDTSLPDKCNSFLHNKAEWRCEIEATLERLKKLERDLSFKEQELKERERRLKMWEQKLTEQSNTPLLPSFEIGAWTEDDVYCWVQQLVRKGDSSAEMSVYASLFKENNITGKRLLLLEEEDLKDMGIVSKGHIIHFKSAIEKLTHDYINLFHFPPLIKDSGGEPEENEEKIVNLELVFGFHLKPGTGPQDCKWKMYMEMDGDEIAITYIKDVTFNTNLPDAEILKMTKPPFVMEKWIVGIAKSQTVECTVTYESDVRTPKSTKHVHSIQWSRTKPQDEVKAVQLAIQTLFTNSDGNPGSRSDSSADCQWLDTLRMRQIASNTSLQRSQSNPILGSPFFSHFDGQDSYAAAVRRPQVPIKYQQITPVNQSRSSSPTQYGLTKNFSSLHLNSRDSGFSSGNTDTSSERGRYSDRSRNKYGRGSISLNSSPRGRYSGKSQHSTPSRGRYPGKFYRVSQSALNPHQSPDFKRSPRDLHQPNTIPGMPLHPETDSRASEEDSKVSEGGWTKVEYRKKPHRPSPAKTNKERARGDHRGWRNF
Sequence of CDK1/Cyclin E (Homo sapiens) (P06493 whole entry, looked up): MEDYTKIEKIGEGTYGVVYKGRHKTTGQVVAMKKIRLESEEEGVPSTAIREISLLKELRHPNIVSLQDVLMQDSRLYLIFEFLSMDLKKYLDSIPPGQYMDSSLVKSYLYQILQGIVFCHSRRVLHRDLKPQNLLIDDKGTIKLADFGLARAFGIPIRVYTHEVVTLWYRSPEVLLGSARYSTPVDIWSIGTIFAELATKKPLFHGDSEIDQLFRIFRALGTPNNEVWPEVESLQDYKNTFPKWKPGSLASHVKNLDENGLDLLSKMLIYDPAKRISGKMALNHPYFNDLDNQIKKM
Sequence of CDK1/Cyclin E (Homo sapiens) (P24864 whole entry, looked up): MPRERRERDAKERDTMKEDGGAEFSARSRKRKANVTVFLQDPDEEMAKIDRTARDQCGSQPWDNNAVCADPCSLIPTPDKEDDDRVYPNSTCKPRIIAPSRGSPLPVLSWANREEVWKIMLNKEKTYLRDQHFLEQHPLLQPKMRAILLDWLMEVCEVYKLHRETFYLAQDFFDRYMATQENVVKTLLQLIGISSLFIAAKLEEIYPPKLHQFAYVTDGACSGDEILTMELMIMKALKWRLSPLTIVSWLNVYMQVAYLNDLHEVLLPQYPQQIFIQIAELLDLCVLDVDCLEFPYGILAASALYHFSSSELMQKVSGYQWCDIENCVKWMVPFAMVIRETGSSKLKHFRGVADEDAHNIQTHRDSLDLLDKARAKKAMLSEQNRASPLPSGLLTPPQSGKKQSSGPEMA
Sequence of CDK1/Cyclin A (Homo sapiens) (P06493 whole entry, looked up): as the sequence (P06493 whole entry, looked up) above
Sequence of CDK1/Cyclin A (Homo sapiens) (P20248 whole entry, looked up): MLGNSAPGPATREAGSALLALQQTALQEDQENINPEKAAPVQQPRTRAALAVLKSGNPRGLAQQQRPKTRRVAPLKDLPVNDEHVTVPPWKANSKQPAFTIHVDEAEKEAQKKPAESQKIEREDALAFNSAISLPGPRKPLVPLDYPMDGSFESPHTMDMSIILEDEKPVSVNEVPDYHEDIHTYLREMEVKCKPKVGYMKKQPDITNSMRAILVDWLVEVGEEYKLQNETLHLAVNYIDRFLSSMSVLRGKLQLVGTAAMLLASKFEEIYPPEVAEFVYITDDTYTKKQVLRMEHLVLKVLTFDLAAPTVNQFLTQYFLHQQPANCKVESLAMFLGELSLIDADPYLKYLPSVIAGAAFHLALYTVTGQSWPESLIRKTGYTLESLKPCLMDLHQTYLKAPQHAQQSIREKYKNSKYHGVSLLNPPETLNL
Sequence of Cyclin-dependent kinase 1/cyclin B1 (Homo sapiens) (P06493 whole entry, looked up): as the sequence (P06493 whole entry, looked up) above
Sequence of Cyclin-dependent kinase 1/cyclin B1 (Homo sapiens) (P14635 whole entry, looked up): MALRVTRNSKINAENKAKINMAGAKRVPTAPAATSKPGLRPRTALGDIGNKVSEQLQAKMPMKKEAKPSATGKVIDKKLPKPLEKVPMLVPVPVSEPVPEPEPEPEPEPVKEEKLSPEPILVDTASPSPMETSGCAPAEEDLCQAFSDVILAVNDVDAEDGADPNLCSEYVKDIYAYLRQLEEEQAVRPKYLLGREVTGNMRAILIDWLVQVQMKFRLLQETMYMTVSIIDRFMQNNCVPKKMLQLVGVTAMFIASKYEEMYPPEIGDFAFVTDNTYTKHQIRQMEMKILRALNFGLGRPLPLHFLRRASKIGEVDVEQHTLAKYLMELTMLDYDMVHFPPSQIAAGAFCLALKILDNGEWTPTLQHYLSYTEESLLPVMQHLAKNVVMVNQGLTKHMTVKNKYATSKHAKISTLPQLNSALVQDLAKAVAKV
Sequence of Ribosomal protein S6 kinase alpha-2 (Homo sapiens) (Q15349 whole entry): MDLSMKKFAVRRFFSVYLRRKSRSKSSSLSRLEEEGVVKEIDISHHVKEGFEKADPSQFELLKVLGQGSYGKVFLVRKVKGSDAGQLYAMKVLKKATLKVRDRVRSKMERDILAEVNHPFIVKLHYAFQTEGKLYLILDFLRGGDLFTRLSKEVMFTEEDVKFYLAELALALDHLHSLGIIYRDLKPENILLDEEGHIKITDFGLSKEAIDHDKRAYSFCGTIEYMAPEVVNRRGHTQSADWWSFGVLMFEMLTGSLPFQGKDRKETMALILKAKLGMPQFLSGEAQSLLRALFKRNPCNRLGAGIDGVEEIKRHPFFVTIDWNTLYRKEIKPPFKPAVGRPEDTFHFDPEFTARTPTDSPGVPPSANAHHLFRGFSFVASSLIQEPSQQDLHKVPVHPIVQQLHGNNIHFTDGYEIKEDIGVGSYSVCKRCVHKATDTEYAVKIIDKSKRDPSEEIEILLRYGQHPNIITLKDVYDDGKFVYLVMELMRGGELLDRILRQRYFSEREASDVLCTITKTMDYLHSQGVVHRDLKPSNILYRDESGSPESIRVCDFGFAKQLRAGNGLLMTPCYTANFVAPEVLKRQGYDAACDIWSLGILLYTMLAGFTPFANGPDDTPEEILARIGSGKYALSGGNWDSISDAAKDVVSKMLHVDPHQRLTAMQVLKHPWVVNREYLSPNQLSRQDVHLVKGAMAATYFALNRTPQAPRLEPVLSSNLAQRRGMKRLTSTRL
Sequence of Maternal embryonic leucine zipper kinase (Homo sapiens) (Q14680 whole entry, looked up): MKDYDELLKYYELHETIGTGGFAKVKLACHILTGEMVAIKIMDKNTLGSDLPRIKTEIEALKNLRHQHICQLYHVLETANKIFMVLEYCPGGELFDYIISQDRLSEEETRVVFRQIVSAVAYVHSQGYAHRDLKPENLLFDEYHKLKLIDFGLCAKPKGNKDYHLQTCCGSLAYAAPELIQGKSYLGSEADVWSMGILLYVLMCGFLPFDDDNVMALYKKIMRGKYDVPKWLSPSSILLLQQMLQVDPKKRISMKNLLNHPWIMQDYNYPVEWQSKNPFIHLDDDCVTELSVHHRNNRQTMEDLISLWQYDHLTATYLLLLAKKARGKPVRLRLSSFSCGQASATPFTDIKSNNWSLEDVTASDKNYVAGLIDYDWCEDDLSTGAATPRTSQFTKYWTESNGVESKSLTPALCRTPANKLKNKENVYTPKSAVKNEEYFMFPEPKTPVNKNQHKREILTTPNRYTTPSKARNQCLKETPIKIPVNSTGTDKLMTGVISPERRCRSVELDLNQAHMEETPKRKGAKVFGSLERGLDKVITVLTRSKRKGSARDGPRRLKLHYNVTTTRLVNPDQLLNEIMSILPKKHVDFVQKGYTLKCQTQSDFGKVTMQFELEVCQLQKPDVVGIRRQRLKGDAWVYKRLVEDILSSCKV

As to `CN(C)C/C=C/C(=O)Nc1ccc(C(=O)N2CCCC(Nc3ncc(Cl)c(-c4c[nH]c5ccccc45)n3)C2)cc1` (stereo unspecified), the % of control in experiment [1] was 69%; in experiment [2], 69%; in experiment [3], 84%; in experiment [4], 55%.

In turn, `O=C(NOC[C@H](O)CO)c1ccc(F)c(F)c1Nc1ccc(I)cc1F` yielded a % of control in [5] of 84%.

The molecule `COc1cc(N(C)c2ccnc3ccc(C(F)(F)F)cc23)cc(OC)c1OC` had a % binding in experiment [6] of 91%.

`N#Cc1cccc(-c2c[nH]c3ncnc(N4CCOCC4)c23)c1` gave a % of control in experiment [7] of 100%.

With `CC[C@@H]1[C@H](F)C(=O)N[C@@H]1COc1nccc2cc(C(N)=O)c(OC)cc12` [ZIMLOVISERTIB], the % of inhibition is -7.8% in experiment [8] (at 0.01 µM); -3.3% in experiment [8] (at 0.04 µM); 9.5% in experiment [8] (at 0.2 µM); 12.2% in [8] (at 1 µM); -6.6% in experiment [8] (at 5 µM).

`CCN(CC)CCCCNc1ncc2cc(-c3cc(OC)cc(OC)c3)c(NC(=O)NC(C)(C)C)nc2n1` returned a % of control in experiment [9] of 100%.

In turn, `CC(=O)Nc1cccc(-n2c(=O)n(C3CC3)c(=O)c3c(Nc4ccc(I)cc4F)n(C)c(=O)c(C)c32)c1` showed a Kdapp in [10] of 1920 nM.

`COc1cc(Nc2nc(C)cc(-c3cnn4nc(OC)ccc34)n2)cc(C(F)(F)F)c1`: the figures for the % of control in experiment [11] and in experiment [12] were 74% and 88%, respectively.

In the case of `C=CC(=O)Nc1cccc(C(=O)Nc2ccc(Nc3cc(-c4[nH]c(SC)nc4C)ccn3)cc2)c1`, the % of control in experiment [13] (at 1 µM) was 89%; in experiment [13] (at 5 µM), 79%; in experiment [14] (at 1 µM), 90%; in experiment [14] (at 5 µM) it was 74%; in [15] (at 1 µM) it was 94%; in experiment [15] (at 5 µM), 77%.

With `CCC(=O)N1CCN(c2ccc(-n3c(=O)ccc4cnc5ccc(-c6cnc7ccccc7c6)cc5c43)cc2C(F)(F)F)CC1`, the % of control in [16] came out at 75%; in experiment [17], 100%.

In experiment [18], `CN(C(=O)c1cnn2cccnc12)c1cc2c(cc1N1CCOCC1)C(=O)N(C[C@@H](F)C(C)(C)O)C2` registered a dTM of -0.8 K.

As to `O[C@H]1CC[C@H](Nc2ncc3nc(Nc4c(F)cc(F)cc4F)n([C@H]4CCOC4)c3n2)CC1`, the % of control in [19] was 100%.
